According to patent US20180147187A1, “COMPOUNDS, COMPOSITIONS, AND METHODS FOR INCREASING CFTR ACTIVITY” (Proteostasis Therapeutics, Inc., priority 2006, published 2018):

Experiments:
ΔF508-CFTR [1] = biological target: T1, ΔF508-CFTR (Homo sapiens, UniProt P13569, DEL508-508); experiment: hBE Equivalent Current (Ieq) Assay; type: cell-based; details: compound at 10 uM and VX-809 at 1 uM; ΔF508 homozygous hBE, 24 hours; AUC of equivalent chloride current
T1 construct: primary lung epithelial cells (hBEs) homozygous for the Cystic Fibrosis-causing ΔF508 mutation; endogenous in cells; host or cells: primary human bronchial epithelial cells (hBE), ΔF508/ΔF508, differentiated at air-liquid interface
Procedure: Primary lung epithelial cells homozygous for the Cystic Fibrosis-causing ΔF508 mutation were differentiated for a minimum of 4 weeks in an air-liquid interface on Costar 24 well HTS filter plates prior to the equivalent current (Ieq) measurements. Cells were apically mucus-washed for 30 minutes 24 h prior to treatment with compounds. The basolateral media was removed and replaced with media containing the compound of interest diluted to its final concentration from DMSO stocks. Treated cells were incubated at 37° C. and 5% CO2 for 24 hours. At the end of the treatment period, the media was changed to the Ieq experimental solution for 30 minutes before the experiment and plates are maintained in a CO2-free incubator during this period. The plates containing the cells were then placed in pre-warmed heating blocks at 36° C.±0.5 for 15 minutes before measurements are taken. The transepithelial voltage (VT) and conductance (GT) were measured using a custom 24 channel current clamp (TECC-24) with 24 well electrode manifold. The Ieq assay measurements were made following additions with standardized time periods: • 1. The baseline VT and GT values were measured for approximately 20 minutes. • 2. Benzamil was added to block ENaC for 15 minutes. • 3. Forskolin plus VX-770 (ivacaftor) were added to maximally activate ΔF508-CFTR for 27 minutes. • 4. Bumetanide was added to inhibit the NaK2C1 cotransporter and shut-off secretion of chloride.
The activity data captured was the area under the curve (AUC) for the traces of the equivalent chloride current. The AUC was collected from the time of the forskolin/VX-770 addition until the inhibition by bumetanide addition. Correction in response to compound treatment was scored as the increase in the AUC for compound-treated samples over that of vehicle-treated samples.
(§1) (** indicates activity ≥200% of VX-809 (1 uM) with compound at 10 uM and VX-809 at 1 uM; * indicates activity 100-200% of VX-809 (1 uM) with compound at 10 uM and VX-809 at 1 uM. ^## indicates activity ≥200% of VX-809 (3 uM) with compound at 10 uM and VX-809 at 3 uM; ^# indicates activity 100-200% of VX-809 (3 uM) with compound at 10 uM and VX-809 at 3 uM.

ΔF508-CFTR [2] = biological target: T1, ΔF508-CFTR; experiment: Ussing measurements, hBEs homozygous for ΔF508; type: cell-based; details: compound at 10 uM and VX-809 at 3 uM; ΔF508 homozygous hBE, 24 hours; CFTRinh-172 inhibitable current
Procedure: As discussed above, Ussing measurements can be used to measure CFTR activity. In this example, primary lung epithelial cells (hBEs) homozygous for the Cystic Fibrosis-causing ΔF508 mutation were differentiated for a minimum of 4 weeks in an air-liquid interface on SnapWell filter plates prior to the Ussing measurements. Cells were apically mucus-washed for 30 minutes prior to treatment with compounds. The basolateral media was removed and replaced with media containing the compound of interest diluted to its final concentration from DMSO stocks. Treated cells were incubated at 37° C. and 5% CO2 for 24 hours. At the end of the treatment period, the cells on filters were transferred to the Ussing chamber and equilibrated for 30 minutes. The short-circuit current was measured in voltage clamp-mode (Vhold=0 mV), and the entire assay was conducted at a temperature of 36° C.-36.5° C. Once the voltages stabilized, the chambers were clamped, and data was recorded by pulse readings every 5 seconds. Following baseline current stabilization, the following additions were applied and the changes in current and resistance of the cells was monitored: • 1. Benzamil to the apical chamber to inhibit ENaC sodium channel. • 2. Forskolin to both chambers to activate ΔF508-CFTR by phosphorylation. • 3. Genistein or VX-770 (ivacaftor) to both chambers to potentiate ΔF508-CFTR channel opening. • 4. CFTRinh-172 to the apical chamber to inhibit ΔF508-CFTR Cl— conductance.
(§2) The inhibitable current (that current that is blocked by CFTRinh-172) is measured as the specific activity of the ΔF508-CFTR channel, and increases in response to compound in this activity over that observed in vehicle-treated samples are identified as the correction of ΔF508-CFTR function imparted by the compound tested.
as §1

CFTR, G551D/F508del HBEs = experiment: Ussing measurements, class III mutation hBEs (G551D/F508del); type: cell-based, human; details: VX-661 3 uM, Ivacaftor 1 uM, Compound A 10 uM, 24 hours
Procedure: (§3) As discussed above, Ussing measurements was used to measure CFTR activity. In this method, primary lung epithelial cells (hBEs) with a Cystic Fibrosis-causing class III mutation were differentiated for a minimum of 4 weeks in an air-liquid interface on SnapWell™ filter plates prior to the Ussing measurements. Cells were apically mucus-washed for 30 minutes prior to treatment with compounds. The basolateral media was removed and replaced with media containing the compound of interest diluted to its final concentration from DMSO stocks. Treated cells were incubated at 37° C. and 5% CO2 for 24 hours. At the end of the treatment period, the cells on filters were transferred to the Ussing chamber and equilibrated for 30 minutes. The short-circuit current was measured in voltage clamp-mode (Vhold=0 mV), and the entire assay was conducted at a temperature of 36° C.-36.5° C. Once the voltages stabilized, the chambers were clamped, and data was recorded by pulse readings every 5 seconds. Following baseline current stabilization, the following additions were applied and the changes in current and resistance of the cells was monitored: • 1. Benzamil to the apical chamber to inhibit ENaC sodium channel. • 2. Forskolin to both chambers to activate ΔF508-CFTR by phosphorylation. • 3. Genistein or VX-770 (ivacaftor) to the apical chamber to potentiate ΔF508-CFTR channel opening. • 4. CFTRinh-172 to the apical chamber to inhibit ΔF508-CFTR Cl— conductance.
as §2, with “The forskolin-sensitive current and” for “The”, “(that potentiated” for “(that”, “CFTRinh-172) were” for “CFTRinh-172) is”, “and increase” for “and increases”, “samples were” for “samples are”
(§4) The results are shown below in Tables 5 and 6. VX-661 is 3 uM, Ivacaftor is 1 uM and Compound A is 10 uM.

CFTR, S549N/F508del HBEs = experiment: Ussing measurements, class III mutation hBEs (S549N/F508del); type: cell-based, human; details: Ivacaftor 1 uM, Compound A 10 uM, 24 hours
Procedure: as §3
as §2, with “The forskolin-sensitive current and” for “The”, “(that potentiated” for “(that”, “CFTRinh-172) were” for “CFTRinh-172) is”, “and increase” for “and increases”, “samples were” for “samples are”
as §4

T1 sequence (P13569 with tags, fused parts or gaps DEL508-508): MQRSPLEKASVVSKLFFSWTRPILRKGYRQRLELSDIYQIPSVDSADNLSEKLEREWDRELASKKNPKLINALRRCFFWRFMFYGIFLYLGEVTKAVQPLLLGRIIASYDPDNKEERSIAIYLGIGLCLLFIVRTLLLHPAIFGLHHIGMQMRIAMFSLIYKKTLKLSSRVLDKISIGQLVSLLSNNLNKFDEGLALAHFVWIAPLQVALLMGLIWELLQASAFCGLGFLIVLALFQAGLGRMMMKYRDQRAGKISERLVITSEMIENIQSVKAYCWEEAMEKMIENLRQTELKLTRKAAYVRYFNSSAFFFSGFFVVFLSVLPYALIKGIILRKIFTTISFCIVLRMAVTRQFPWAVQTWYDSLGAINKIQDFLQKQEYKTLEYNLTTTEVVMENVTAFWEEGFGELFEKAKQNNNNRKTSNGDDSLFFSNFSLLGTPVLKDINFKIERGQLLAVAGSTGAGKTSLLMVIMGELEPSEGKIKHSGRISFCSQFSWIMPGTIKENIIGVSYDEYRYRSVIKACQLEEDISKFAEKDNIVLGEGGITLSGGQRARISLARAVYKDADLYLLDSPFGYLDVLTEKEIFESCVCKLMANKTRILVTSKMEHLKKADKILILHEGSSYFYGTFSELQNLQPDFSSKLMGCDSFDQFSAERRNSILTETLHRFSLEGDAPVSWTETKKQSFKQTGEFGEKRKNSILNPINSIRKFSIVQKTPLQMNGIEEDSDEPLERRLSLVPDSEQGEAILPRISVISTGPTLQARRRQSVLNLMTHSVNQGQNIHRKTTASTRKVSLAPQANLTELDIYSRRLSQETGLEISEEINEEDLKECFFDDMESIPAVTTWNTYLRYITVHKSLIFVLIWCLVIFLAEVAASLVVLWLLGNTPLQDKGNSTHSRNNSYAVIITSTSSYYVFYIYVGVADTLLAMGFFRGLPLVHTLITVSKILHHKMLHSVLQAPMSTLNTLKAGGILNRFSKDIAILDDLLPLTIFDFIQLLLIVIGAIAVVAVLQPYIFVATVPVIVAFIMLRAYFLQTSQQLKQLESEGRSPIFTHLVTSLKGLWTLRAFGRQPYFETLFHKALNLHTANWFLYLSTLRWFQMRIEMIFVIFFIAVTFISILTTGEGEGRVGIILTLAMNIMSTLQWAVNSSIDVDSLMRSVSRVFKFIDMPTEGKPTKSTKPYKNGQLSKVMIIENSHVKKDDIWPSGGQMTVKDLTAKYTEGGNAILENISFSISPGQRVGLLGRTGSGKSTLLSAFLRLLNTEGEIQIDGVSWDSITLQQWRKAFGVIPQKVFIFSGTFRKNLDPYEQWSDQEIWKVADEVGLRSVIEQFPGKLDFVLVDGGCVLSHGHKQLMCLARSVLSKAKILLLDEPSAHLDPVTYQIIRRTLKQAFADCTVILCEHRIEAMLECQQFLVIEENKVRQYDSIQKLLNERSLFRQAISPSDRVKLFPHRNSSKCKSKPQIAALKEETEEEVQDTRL

Compound | Ieq (% VX-809) (ΔF508-CFTR [1]) | Ussing (% VX-809) (ΔF508-CFTR [2]) | also measured
O=C(N[C@H]1C[C@@H](Cc2nnc(CO)s2)C1)c1cc(-c2ccccc2)on1 | ** (** indicates activity ≥200% of VX-809 (1 uM) with compound at 10 uM and VX-809 at 1 uM) | ## (^## indicates activity ≥200% of VX-809 (3 uM) with compound at 10 uM and VX-809 at 3 uM) | –
C[C@H](O)c1cnnn1[C@H]1C[C@@H](NC(=O)c2cc(-c3ccccc3)on2)C1 | ** (** indicates activity ≥200% of VX-809 (1 uM) with compound at 10 uM and VX-809 at 1 uM) | ## (^## indicates activity ≥200% of VX-809 (3 uM) with compound at 10 uM and VX-809 at 3 uM) | –
O=C(NC[C@H]1C[C@@H](c2nnc(CO)s2)C1)c1cc(-c2ccccc2)on1 | ** (** indicates activity ≥200% of VX-809 (1 uM) with compound at 10 uM and VX-809 at 1 uM) | – | –
C[C@@H](O)c1cn([C@H]2C[C@@H](NC(=O)c3cc(-c4ccccc4)on3)C2)nn1 | ** (** indicates activity ≥200% of VX-809 (1 uM) with compound at 10 uM and VX-809 at 1 uM) | – | –
O=C(N[C@H]1C[C@@H](n2cc(CO)nn2)C1)c1cc(-c2ccccc2)on1 | ** (** indicates activity ≥200% of VX-809 (1 uM) with compound at 10 uM and VX-809 at 1 uM) | ## (^## indicates activity ≥200% of VX-809 (3 uM) with compound at 10 uM and VX-809 at 3 uM) | –
CC(C)(CO)c1cc2cc(NC(=O)C3(c4ccc5c(c4)OC(F)(F)O5)CC3)c(F)cc2n1C[C@@H](O)CO [VX-661, 1-(2,2-difluoro-1,3-benzodioxol-5-yl)-N-[1-[(2R)-2,3-dihydroxypropyl]-6-fluoro-2-(2-hydroxy-1,1-dimethylethyl)-1H-indol-5-yl]-cyclopropanecarboxamide] | – | – | Activity in G551D/F508del HBEs (CFTR, G551D/F508del HBEs): 3.8 uAMP/cm^2
O=C(N[C@H]1C[C@H](n2nncc2CO)C1)c1cc(-c2ccccc2)on1 | * (* indicates activity 100-200% of VX-809 (1 uM) with compound at 10 uM and VX-809 at 1 uM) | ## (^## indicates activity ≥200% of VX-809 (3 uM) with compound at 10 uM and VX-809 at 3 uM) | –
O=C(NC[C@H]1C[C@H](c2nnc(CO)s2)C1)c1cc(-c2ccccc2)on1 | ** (** indicates activity ≥200% of VX-809 (1 uM) with compound at 10 uM and VX-809 at 1 uM) | – | –
O=C(N[C@H]1C[C@@H](n2ccc(CO)n2)C1)c1cc(-c2ccccc2)on1 | ** (** indicates activity ≥200% of VX-809 (1 uM) with compound at 10 uM and VX-809 at 1 uM) | – | –
C[C@@H](O)c1cnnn1[C@H]1C[C@@H](NC(=O)c2cc(-c3ccccc3)on2)C1 | ** (** indicates activity ≥200% of VX-809 (1 uM) with compound at 10 uM and VX-809 at 1 uM) | – | –
O=C(N[C@H]1C[C@H](Cc2nnc(CO)s2)C1)c1cc(-c2ccccc2)on1 | ** (** indicates activity ≥200% of VX-809 (1 uM) with compound at 10 uM and VX-809 at 1 uM) | – | –
Cc1ccc(NC(=O)C2(c3ccc4c(c3)OC(F)(F)O4)CC2)nc1-c1cccc(C(=O)O)c1 [VX-809, 3-(6-(1-(2,2-difluorobenzo[d][1,3]dioxol-5-yl)cyclopropanecarboxamido)-3-methylpyridin-2-yl)benzoic acid] | – | – | Activity in S549N/F508del HBEs (CFTR, S549N/F508del HBEs): 6.4 uAMP/cm^2
O=C(N[C@H]1C[C@@H](n2cc(CO)cn2)C1)c1cc(-c2ccccc2)on1 | * (* indicates activity 100-200% of VX-809 (1 uM) with compound at 10 uM and VX-809 at 1 uM) | – | –
O=C(N[C@H]1C[C@@H](c2nnc(CO)s2)C1)c1cc(-c2ccccc2)on1 | ** (** indicates activity ≥200% of VX-809 (1 uM) with compound at 10 uM and VX-809 at 1 uM) | – | –
C[C@H](O)c1nnc(C2CC(NC(=O)c3cc(-c4ccccc4)on3)C2)o1 (some centres unmarked) | – | ## (^## indicates activity ≥200% of VX-809 (3 uM) with compound at 10 uM and VX-809 at 3 uM) | –
O=C(N[C@H]1C[C@@H](n2nncc2CO)C1)c1cc(-c2ccccc2)on1 | ** (** indicates activity ≥200% of VX-809 (1 uM) with compound at 10 uM and VX-809 at 1 uM) | ## (^## indicates activity ≥200% of VX-809 (3 uM) with compound at 10 uM and VX-809 at 3 uM) | –
C[C@H](O)c1cn([C@H]2C[C@@H](NC(=O)c3cc(-c4ccccc4)on3)C2)nn1 | ** (** indicates activity ≥200% of VX-809 (1 uM) with compound at 10 uM and VX-809 at 1 uM) | – | –
C[C@@H](O)c1nnc(C2CC(NC(=O)c3cc(-c4ccccc4)on3)C2)o1 (some centres unmarked) | – | ## (^## indicates activity ≥200% of VX-809 (3 uM) with compound at 10 uM and VX-809 at 3 uM) | –
O=C(NC1CC(c2nnc(CO)o2)C1)c1cc(-c2ccccc2)on1 (centres unmarked) | – | ## (^## indicates activity ≥200% of VX-809 (3 uM) with compound at 10 uM and VX-809 at 3 uM) | –
O=C(N[C@H]1C[C@H](n2cc(CO)nn2)C1)c1cc(-c2ccccc2)on1 | * (* indicates activity 100-200% of VX-809 (1 uM) with compound at 10 uM and VX-809 at 1 uM) | ## (^## indicates activity ≥200% of VX-809 (3 uM) with compound at 10 uM and VX-809 at 3 uM) | –
